Laboratory results taken from patent publication US7612082B2, “Prostaglandin EP4 antagonists” (Allergan, Inc., priority 2004, dated 2009).

What was measured:
hDP = molecular target: T1, hDP (Homo sapiens, UniProt Q13258); experiment: Calcium signal (FLIPR) assay, hDP (HEK); type: cell-based; conditions: for Kb: antagonism of standard agonist BW245C, HEK cells coexpress chimeric Gqs5
T1 construct: expressed in transfected cells; host or cells: HEK (by analogy HEK-293(EBNA))
T1 sequence (Q13258 1-359): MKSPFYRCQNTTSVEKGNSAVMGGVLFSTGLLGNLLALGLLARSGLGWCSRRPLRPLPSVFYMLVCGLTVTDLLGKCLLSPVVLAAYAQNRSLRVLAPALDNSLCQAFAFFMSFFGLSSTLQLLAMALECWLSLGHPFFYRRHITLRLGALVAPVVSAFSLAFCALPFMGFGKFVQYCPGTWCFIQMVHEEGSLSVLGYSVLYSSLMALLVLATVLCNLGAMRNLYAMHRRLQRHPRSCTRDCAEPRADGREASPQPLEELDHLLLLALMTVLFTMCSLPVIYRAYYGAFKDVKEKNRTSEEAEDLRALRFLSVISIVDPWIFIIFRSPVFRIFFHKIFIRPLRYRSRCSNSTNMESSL
Method: (§1) Cells were then washed twice with HBSS-HEPES buffer (Hanks Balanced Salt Solution without bicarbonate and phenol red, 20 mM HEPES, pH 7.4) using a Denley Cellwash plate washer (Labsystems; Franklin, Mass.). After 45-60 min of dye-loading in the dark using the calcium-sensitive dye Fluo-4 AM, at a final concentration of 2 μM, plates were washed four times with HBSS-HEPES buffer to remove excess dye and leaving 100 μl buffer in each well. Plates were then placed into a FLIPR™ instrument and were allowed to equilibrate at 37° C. Drug solution was added in a 50 μl volume to each well to give the desired final concentration. Cells were excited with an Argon laser at 488 nm, and emission was measured through a 510-570 nm bandwidth emission filter (FLIPR™, Molecular Devices, Sunnyvale, Calif.). The peak increase in fluorescence intensity was recorded for each well. […] A similar analysis was carried out for the other prostaglandin receptors, and for compound 2.

hEP1 = molecular target: T2, hEP1 (Homo sapiens, UniProt P34995); experiment: Calcium signal (FLIPR) assay, hEP1 (HEK); type: cell-based
T2 construct: expressed in transfected cells; host or cells: HEK (by analogy HEK-293(EBNA))
T2 sequence (P34995 1-402): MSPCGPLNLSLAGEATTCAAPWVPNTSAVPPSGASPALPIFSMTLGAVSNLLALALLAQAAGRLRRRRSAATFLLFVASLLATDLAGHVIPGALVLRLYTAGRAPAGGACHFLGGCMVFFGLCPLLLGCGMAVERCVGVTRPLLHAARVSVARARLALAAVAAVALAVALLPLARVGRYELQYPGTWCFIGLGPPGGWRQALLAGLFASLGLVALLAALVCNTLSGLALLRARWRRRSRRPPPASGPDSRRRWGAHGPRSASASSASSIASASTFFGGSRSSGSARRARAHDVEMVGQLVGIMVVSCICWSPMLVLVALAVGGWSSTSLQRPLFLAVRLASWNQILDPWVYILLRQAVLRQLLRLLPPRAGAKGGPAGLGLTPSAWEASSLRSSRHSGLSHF
Method: as §1

hEP2 = molecular target: T3, hEP2 (Homo sapiens, UniProt P43116); experiment: Calcium signal (FLIPR) assay, hEP2 (HEK); type: cell-based
T3 construct: expressed in transfected cells; host or cells: HEK (by analogy HEK-293(EBNA))
T3 sequence (P43116 whole entry): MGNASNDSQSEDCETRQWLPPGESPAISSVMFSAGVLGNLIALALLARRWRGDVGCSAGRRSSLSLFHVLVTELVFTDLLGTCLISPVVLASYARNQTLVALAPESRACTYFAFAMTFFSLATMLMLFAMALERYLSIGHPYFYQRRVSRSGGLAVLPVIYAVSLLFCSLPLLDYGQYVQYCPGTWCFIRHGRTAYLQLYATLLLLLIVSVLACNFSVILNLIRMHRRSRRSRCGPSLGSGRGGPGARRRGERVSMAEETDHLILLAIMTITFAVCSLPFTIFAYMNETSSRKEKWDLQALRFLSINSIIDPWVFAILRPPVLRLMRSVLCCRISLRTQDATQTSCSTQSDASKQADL
Method: (§2) Cells were then washed twice with HBSS-HEPES buffer (Hanks Balanced Salt Solution without bicarbonate and phenol red, 20 mM HEPES, pH 7.4) using a Denley Cellwash plate washer (Labsystems; Franklin, Mass.). After 45-60 min of dye-loading in the dark using the calcium-sensitive dye Fluo-4 AM, at a final concentration of 2 μM, plates were washed four times with HBSS-HEPES buffer to remove excess dye and leaving 100 μl buffer in each well. Plates were then placed into a FLIPR™ instrument and were allowed to equilibrate at 37° C. […] The peak increase in fluorescence intensity was recorded for each well.

hEP3A = molecular target: T4, hEP3A (Homo sapiens, UniProt P43115); experiment: Calcium signal (FLIPR) assay, hEP3A (HEK); type: cell-based
T4 construct: expressed in transfected cells; host or cells: HEK (by analogy HEK-293(EBNA))
T4 sequence (P43115 1-390): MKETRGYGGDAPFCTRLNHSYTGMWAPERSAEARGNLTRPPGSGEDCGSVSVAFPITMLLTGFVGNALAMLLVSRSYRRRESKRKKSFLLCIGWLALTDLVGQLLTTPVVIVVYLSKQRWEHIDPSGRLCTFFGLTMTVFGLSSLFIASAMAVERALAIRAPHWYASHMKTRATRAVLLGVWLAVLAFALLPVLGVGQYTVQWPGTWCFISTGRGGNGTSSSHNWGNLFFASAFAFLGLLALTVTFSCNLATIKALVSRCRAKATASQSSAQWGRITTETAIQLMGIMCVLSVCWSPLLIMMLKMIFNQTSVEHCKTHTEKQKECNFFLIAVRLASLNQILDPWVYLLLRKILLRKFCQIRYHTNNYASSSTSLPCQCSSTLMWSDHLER
Method: as §2

human EP4 receptor = molecular target: T5, human EP4 receptor (Homo sapiens, UniProt P35408); experiment: Effect on Prostaglandin E2 induced calcium signal (FLIPR), hEP4 (HEK); type: cell-based
T5 construct: expressed in transfected cells; host or cells: HEK-293(EBNA)
T5 sequence (P35408 whole entry): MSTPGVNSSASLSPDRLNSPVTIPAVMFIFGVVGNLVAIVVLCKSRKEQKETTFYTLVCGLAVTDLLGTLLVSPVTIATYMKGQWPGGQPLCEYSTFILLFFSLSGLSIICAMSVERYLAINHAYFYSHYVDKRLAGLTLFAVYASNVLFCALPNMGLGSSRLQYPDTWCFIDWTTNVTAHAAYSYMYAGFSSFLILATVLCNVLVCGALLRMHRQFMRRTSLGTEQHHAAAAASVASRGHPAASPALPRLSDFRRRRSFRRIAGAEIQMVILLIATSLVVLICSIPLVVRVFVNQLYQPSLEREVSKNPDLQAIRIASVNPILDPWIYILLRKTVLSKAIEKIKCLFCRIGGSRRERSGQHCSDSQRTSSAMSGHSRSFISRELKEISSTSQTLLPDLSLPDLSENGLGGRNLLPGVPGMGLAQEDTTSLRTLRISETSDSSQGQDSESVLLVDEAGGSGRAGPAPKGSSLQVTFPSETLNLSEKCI
Method: as §2

hFP = molecular target: T6, hFP (Homo sapiens, UniProt P43088); experiment: Calcium signal (FLIPR) assay, hFP (HEK); type: cell-based
T6 construct: expressed in transfected cells; host or cells: HEK (by analogy HEK-293(EBNA))
T6 sequence (P43088 whole entry): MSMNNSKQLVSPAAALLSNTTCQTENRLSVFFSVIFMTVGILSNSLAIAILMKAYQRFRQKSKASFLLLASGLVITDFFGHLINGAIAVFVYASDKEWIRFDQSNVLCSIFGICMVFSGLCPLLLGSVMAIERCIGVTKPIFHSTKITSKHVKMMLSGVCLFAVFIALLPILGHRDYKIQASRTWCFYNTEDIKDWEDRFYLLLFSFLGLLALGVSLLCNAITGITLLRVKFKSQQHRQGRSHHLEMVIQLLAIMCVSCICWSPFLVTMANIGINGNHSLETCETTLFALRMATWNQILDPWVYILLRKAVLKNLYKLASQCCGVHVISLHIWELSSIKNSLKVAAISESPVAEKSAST
Method: as §2

hIP = molecular target: T7, hIP (Homo sapiens, UniProt P43119); experiment: Calcium signal (FLIPR) assay, hIP (HEK); type: cell-based; conditions: antagonism of standard agonist Carbacyclin; HEK cells
T7 construct: expressed in transfected cells; host or cells: HEK (by analogy HEK-293(EBNA))
T7 sequence (P43119 whole entry): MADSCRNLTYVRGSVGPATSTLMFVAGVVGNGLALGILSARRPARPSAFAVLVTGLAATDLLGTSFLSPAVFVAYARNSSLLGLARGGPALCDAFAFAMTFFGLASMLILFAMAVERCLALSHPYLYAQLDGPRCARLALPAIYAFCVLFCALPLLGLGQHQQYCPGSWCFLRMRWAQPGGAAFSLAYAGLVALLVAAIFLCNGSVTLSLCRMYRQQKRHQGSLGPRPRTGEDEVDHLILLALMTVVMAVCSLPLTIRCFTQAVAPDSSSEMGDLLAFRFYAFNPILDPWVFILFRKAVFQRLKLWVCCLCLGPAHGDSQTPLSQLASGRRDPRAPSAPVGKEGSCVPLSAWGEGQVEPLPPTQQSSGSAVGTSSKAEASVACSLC
Method: as §2

hTP = molecular target: T8, hTP (Homo sapiens, UniProt P21731); experiment: Calcium signal (FLIPR) assay, hTP (HEK); type: cell-based; conditions: for Kb: antagonism of standard agonist U-46619, HEK cells
T8 construct: expressed in transfected cells; host or cells: HEK (by analogy HEK-293(EBNA))
T8 sequence (P21731 1-343): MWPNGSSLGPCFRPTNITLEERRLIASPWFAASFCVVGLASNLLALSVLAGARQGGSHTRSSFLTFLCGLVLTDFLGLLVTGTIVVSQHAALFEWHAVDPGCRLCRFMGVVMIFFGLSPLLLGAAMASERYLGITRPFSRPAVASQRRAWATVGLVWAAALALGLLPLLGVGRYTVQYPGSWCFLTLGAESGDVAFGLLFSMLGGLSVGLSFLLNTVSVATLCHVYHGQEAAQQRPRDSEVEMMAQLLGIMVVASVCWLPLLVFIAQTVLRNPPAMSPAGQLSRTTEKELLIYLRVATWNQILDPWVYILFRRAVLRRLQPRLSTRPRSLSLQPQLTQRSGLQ
Method: as §1

[1] = Capsule given daily to patient suffering from osteoporosis (Example 25); type: in vivo, human
Method: A capsule comprising compound 2 is administered daily to a patient suffering from osteoporosis.

[2] = Tablet given to person suffering from migraine headache (Example 26); type: in vivo, human; conditions: person suffering from a migraine headache
Method: A tablet comprising compound 2 is administered to a person suffering from a migraine headache.

[3] = Capsule or suppository given daily to patient suffering from cancer (Example 27); type: in vivo, human
Method: A capsule or suppository comprising compound 1 is administered daily to a patient suffering from cancer.

Row | Kb (hDP) | Kb (hEP1) | Kb (hEP2) | Kb (hEP3A) | Kb (human EP4 receptor) | Kb (hFP) | Kb (hIP) | Kb (hTP) | Structure (SMILES) | other results
1 | > 10 µM | > 10 µM | > 10 µM | > 10 µM | 0.172 µM | > 10 µM | > 10 µM | > 10 µM | CN(CC(=O)Nc1c2c(nc3ccccc13)CCC2)Cc1ccccc1 [Compound 2] | Bone density [1]: Increase in bone density or reduction in bone density loss occurs; Pain [2]: Significantly less pain is experienced by the patient
2 |  |  |  |  |  |  |  |  | O=C(O)CCCCCCC1C(=O)NC(=O)N1CCC(O)C1CCCCC1 (stereo not shown) [BW245C, reference compound] | EC50 (hDP; agonist potency, calcium signal, cells coexpress chimeric Gqs5, read-out: Standard agonist hDP (HEK)): 0.006 µM
3 | > 10 µM | > 10 µM | > 10 µM | > 10 µM | 0.101 µM | > 10 µM | > 10 µM | > 10 µM | CN(CC(=O)Nc1c2c(nc3c1CCC3)CCCC2)Cc1ccccc1 [Compound 1] | Patient's condition [3]: Improvement in the patient's condition occurs
4 |  |  |  |  |  |  |  |  | CCCCC[C@H](O)/C=C/[C@@H]1[C@@H](C/C=C\CCCC(=O)O)[C@H]2CO[C@@H]1C2 [Compound U-46619, U-46619, reference compound] | EC50 (hTP; agonist potency, calcium signal, read-out: Standard agonist hTP (HEK)): 0.0003 µM
5 |  |  |  |  |  |  |  |  | CCCCC[C@H](O)/C=C/[C@H]1[C@H](O)CC(=O)[C@@H]1C/C=C\CCCC(=O)O [PGE2, Prostaglandin E2, reference compound] | EC50 (hEP1; agonist potency, calcium signal, read-out: Standard agonist hEP1 (HEK)): 0.0003 µM
